Results reported in patent publication US7935719B2, “N-substituted-azacyclylamines as histamine-3 antagonists” (Wyeth LLC, priority 2006, dated 2011).

Columns and labels:
[1] = target: T1, Histamine Receptor H3 (Homo sapiens, UniProt Q9Y5N1); test: Cyclic AMP assay for histamine receptor H3 antagonism activity; format: cell-based; design: expressed in transfected cells; conditions: stable H3 cells, histamine plus 10 μM forskolin, 30 min at 30° C., HitHunter cAMP kit
Procedure: Cyclic Amp Assay for Histamine Receptor H3 Antagonism Activity.
Stable H3 cells are maintained in tissue culture flask in DMEM with high glucose, 10% FBS, 1× pen/strep, 500 ug/ml GY18, until experiment. Culture media is removed and cells are washed twice with PBS w/Ca+2 and Mg+2 plus 500 μM IBMX. Cells are then detached by tapping on the side of the flask and resuspend in the same buffer. Two thousand cells/well are incubated with 1 μM histamine plus 10 μM forskolin plus various concentrations of compounds in a total volume of 30 μL in 96 well plates for 30 min at 30° C. Final test compound concentrations range from 10^-4 M to 10-9.5 M at full log dilutions. Cyclic AMP levels are measured using HitHunter cAMP kit from Discoverx, cat#900041 according to manufacturer's instruction. Chemiluminescence signals are detected using Top Count (Packard). Cyclic AMP levels in control cells receiving 10 μM forskolin plus 100 nM histamine are considered 0%, and in cells receiving 10 uM forskolin plus 100 nM histamine plus 1 μM clobenpropit are considered 100%. Data are expressed as % control and analyzed using Prizm software. The Kb values are calculated using the following equation, KB=EC50 or IC50/[1+(ligand/Kd)].

[2] = target: T1, Histamine Receptor H3; test: Methyl histamine binding in human histamine H3 receptor cell line; design: expressed in transfected cells; host or cells: HEK293T; conditions: membranes of stably transfected HEK293T cells, radioligand 1 nM, Ki from IC50 by Cheng-Prusoff
Procedure: Evaluation of Methyl Histamine Binding in Human Histamine H3 Receptor Cell Line
The affinity of test compounds for the histamine 3 (H3) receptor is evaluated in the following manner. […] Cells are scraped from the plate, transferred to centrifuge tubes, washed one time in PBS by centrifugation in a Sorvall RT7 Plus centrifuge (2000 rpm 10 minutes, 4° C.). The resulting pellets are stored at −80° C. until ready for use. Cells are re-suspended in buffer (50 mM Tris pH=7.5) and placed in a Dounce homogenizer, douncing ten times to homogenize cells. The homogenate is spun down by centrifugation (Sorvall RT7 Plus, 1800 rpm 10 minutes, 4° C.). The supernatant is placed in a Corex tube and spun down by centrifugation (Sorvall RC 5c Plus, 17,000 rpm 20 minutes, 4° C.). The pellet is resuspended in buffer (50 mM Tris, pH 7.5). Protein concentration (ug/ul) is determined using the Micro-BCA Protein Determination. The binding assay is set up in a 96 well microtiter plate in a total volume of 250 uL. Non-specific binding is determined in the presence of 10 uM clobenpropit. The final radioligand concentration is 1 nM. The test compound is serially diluted using the Beckman Biomek2000 to a final approximate range of 100 uM to 100 pM. Membranes are suspended in buffer, homogenized in 2 bursts of ten seconds using a Vitris mechanical homogenizer set at power setting 5. Ten μg of membranes are added to each well. Following a one hour incubation at 30° C., the reaction is terminated by the addition of ice cold buffer and rapid filtration with a Packard Filtermate Harvester through a GF/B filter pre-soaked with 1% PEI for one hour. The plate is dried for one hour at 37° C. and 60 μL Microscint Scintillant is added to each well. The CPM per well is measured on a Packard Top Count NXT. Ki values are determined in nM. […] CPM values are expressed as % specific binding and plotted vs compound concentration. A curve is fitted using a four-parameter logistic fit and the IC50 value is determined. The Ki is calculated from this using the Cheng-Prusoff equation: […]=IC50/1+(L/Kd) where L=concentration of free radioligand used in the assay, and Kd is the dissociation constant of the radioligand for the receptor. L is determined for each experiment by counting an aliquot of the diluted radioligand (corresponding to that added to each well) and the Kd has previously been determined under identical conditions for this cell line/radioligand.

T1 sequence (Q9Y5N1 whole entry): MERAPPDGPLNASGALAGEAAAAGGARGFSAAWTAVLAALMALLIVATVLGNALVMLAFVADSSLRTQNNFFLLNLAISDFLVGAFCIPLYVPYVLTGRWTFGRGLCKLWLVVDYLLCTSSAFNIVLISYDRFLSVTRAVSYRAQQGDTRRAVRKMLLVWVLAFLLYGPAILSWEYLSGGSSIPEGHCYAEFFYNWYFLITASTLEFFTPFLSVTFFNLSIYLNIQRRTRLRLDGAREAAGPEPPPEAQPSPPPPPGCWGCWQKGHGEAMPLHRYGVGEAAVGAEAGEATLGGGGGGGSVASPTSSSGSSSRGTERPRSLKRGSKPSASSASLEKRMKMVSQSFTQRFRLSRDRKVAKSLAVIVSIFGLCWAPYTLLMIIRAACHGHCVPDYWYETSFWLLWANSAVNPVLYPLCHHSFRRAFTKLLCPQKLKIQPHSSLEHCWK

SMILES | Kb [1] [nM] | Ki [2] [nM]
Cc1nc2ccccc2n1-c1ccc(C(=O)N2CC[C@H](N3CCC[C@H]3C)C2)cc1 [Example 21, (2R,3′S)-2-methyl-1′-[4-(2-methyl-1H-benzimidazol-1-yl)benzoyl]-1,3′-bipyrrolidine] | < 10 | < 10
Cc1nc2ccccc2n1-c1ccc(C(=O)N2CC[C@H](N3CCC[C@@H]3C)C2)cc1 [Example 22, (2S,3′S)-2-methyl-1′-[4-(2-methyl-1H-benzimidazol-1-yl)benzoyl]-1,3′-bipyrrolidine] | < 10 | < 10
Cc1nc2ccccc2n1-c1ccc(C(=O)N2CC[C@H](N3CCCC(C)C3)C2)cc1 (stereo partly drawn) [Example 24, 2-methyl-1-(4-{[(3S)-3-(3-methylpiperidin-1-yl)pyrrolidin-1-yl]carbonyl}phenyl)-1H-benzimidazole] | < 10 | < 10
Cc1nc2ccccc2n1-c1ccc(C(=O)N2CC[C@H](N3CCCCC3)C2)cc1 [Example 28, 2-methyl-1-(4-{[(3S)-3-piperidin-1-ylpyrrolidin-1-yl]carbonyl}phenyl)-1H-benzimidazole] | < 10 | < 10
O=C(c1ccc(-n2ccc3c(F)cccc32)cc1)N1CC[C@H](N2CCCC2)C1 [Example 31, (3′S)-1′-[4-(4-fluoro-1H-indol-1-yl)benzoyl]-1,3′-bipyrrolidine] | < 10 | < 10
COc1ccc2c(ccn2-c2ccc(C(=O)N3CC[C@H](N4CCCC4)C3)cc2)c1 [Example 33, (3′S)-1′-[4-(5-methoxy-1H-indol-1-yl)benzoyl]-1,3′-bipyrrolidine] | < 10 | < 10
N#Cc1ccc2c(ccn2-c2ccc(C(=O)N3CC[C@H](N4CCCC4)C3)cc2)c1 [Example 36, 1-{4-[(3′S)-1,3′-bipyrrolidin-1′-ylcarbonyl]phenyl}-1H-indole-5-carbonitrile] | < 10 | < 10
O=C(c1ccc(-n2ccc3cc(F)ccc32)cc1)N1CC[C@H](N2CCCC2)C1 [Example 37, (3′S)-1′-[4-(5-fluoro-1H-indol-1-yl)benzoyl]-1,3′-bipyrrolidine] | < 10 | < 10
O=C(c1ccc(-n2ccc3cccc(F)c32)cc1)N1CC[C@H](N2CCCC2)C1 [Example 39, (3′S)-1′-[4-(7-fluoro-1H-indol-1-yl)benzoyl]-1,3′-bipyrrolidine] | < 10 | < 10
